According to ChEMBL document CHEMBL4706771, “Discovery of Orally Bioavailable Ligand Efficient Quinazolindiones as Potent and Selective Tankyrases Inhibitors” (ACS Med Chem Lett, 2021):
Calls of active or inactive are those of the source. The calls are words filed in the database; no cut-off is given here.

Assays:
[1] = biological target: T1, Poly [ADP-ribose] polymerase tankyrase-1 (Homo sapiens, UniProt O95271); test: Inhibition of human TNKS1 incubated for 1 to 2 hrs by fluorescence polarization assay
T1 sequence (O95271 whole entry): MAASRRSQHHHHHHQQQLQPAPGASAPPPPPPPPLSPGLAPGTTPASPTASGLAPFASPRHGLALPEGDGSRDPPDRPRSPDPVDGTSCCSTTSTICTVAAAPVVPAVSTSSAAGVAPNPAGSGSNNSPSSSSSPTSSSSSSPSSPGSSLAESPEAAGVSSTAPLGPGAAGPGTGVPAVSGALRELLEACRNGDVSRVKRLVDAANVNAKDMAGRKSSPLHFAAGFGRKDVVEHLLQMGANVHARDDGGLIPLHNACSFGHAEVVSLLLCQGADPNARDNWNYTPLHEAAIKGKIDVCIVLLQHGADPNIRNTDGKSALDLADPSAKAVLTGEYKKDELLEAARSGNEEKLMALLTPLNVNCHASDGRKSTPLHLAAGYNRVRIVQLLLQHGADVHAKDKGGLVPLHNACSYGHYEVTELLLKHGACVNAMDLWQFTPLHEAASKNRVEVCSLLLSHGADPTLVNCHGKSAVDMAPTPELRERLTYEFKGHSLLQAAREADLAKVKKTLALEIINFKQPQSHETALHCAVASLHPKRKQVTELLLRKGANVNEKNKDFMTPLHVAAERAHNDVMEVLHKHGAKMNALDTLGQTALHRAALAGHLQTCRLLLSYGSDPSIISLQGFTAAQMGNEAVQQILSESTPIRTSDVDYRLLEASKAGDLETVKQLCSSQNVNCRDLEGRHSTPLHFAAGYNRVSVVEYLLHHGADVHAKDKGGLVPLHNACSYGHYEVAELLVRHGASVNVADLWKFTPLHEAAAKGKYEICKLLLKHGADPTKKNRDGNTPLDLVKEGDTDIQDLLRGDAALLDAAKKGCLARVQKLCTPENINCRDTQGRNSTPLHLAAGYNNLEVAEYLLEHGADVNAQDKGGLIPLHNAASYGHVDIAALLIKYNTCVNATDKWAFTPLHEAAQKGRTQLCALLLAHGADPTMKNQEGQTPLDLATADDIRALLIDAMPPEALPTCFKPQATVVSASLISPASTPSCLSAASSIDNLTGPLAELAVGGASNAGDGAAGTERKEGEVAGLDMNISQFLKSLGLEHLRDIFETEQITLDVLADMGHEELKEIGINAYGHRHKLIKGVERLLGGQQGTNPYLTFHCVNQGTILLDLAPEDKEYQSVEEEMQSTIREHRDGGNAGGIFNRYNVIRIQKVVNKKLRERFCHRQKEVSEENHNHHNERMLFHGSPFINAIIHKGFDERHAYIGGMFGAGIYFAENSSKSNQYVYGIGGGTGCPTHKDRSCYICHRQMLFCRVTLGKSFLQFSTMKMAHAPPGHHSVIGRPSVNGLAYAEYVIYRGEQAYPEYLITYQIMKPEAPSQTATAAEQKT

[2] = Inhibition of Wnt/beta-catenin (unknown origin) expressed in human HEK293 cells expressing MSRII transfected with DNA-LF2K incubated for 24 hrs by luciferase reporter gene assay; conditions: HEK293, 24 h
[3] = Volume of distribution in Sprague-Dawley rat at 8.6 mg/kg, po or 0.5 mg/kg, iv; assay type: ADME, organism-based; conditions: in vivo
[4] = Half life in Sprague-Dawley rat at 8.6 mg/kg, po or 0.5 mg/kg, iv; assay type: ADME, organism-based; conditions: in vivo
[5] = Oral bioavailability in Sprague-Dawley rat at 8.6 mg/kg; assay type: ADME, organism-based; conditions: in vivo
[6] = Clearance in C57 mouse at 3 mg/kg, po or 1 mg/kg, iv; assay type: ADME, organism-based; conditions: in vivo
[7] = Half life in C57 mouse at 3 mg/kg, po or 1 mg/kg, iv; assay type: ADME, organism-based; conditions: in vivo
[8] = Oral bioavailability in C57 mouse at 3 mg/kg; assay type: ADME, organism-based; conditions: in vivo
[9] = Clearance in Beagle dog at 2 mg/kg, po or 1 mg/kg, iv; assay type: ADME, organism-based, Canis lupus familiaris; conditions: in vivo
[10] = Volume of distribution in Beagle dog at 2 mg/kg, po or 1 mg/kg, iv; assay type: ADME, organism-based, Canis lupus familiaris; conditions: in vivo
[11] = biological target: Cytochrome P450 2C19 (Homo sapiens, UniProt P33261); test: Inhibition of CYP2C19 (unknown origin); assay type: ADME
[12] = biological target: Cytochrome P450 2D6 (Homo sapiens, UniProt P10635); test: Inhibition of CYP2D6 (unknown origin); assay type: ADME
[13] = biological target: Cytochrome P450 3A4 (Homo sapiens, UniProt P08684); test: Inhibition of CYP3A4 (unknown origin); assay type: ADME
[14] = Mutagenicity in Salmonella typhimurium TA1535 by ames test; assay type: toxicity; conditions: salmonella enterica subsp. enterica serovar typhimurium
[15] = Mutagenicity in Salmonella typhimurium TA1537 by ames test; assay type: toxicity; conditions: salmonella enterica subsp. enterica serovar typhimurium
[16] = Mutagenicity in Salmonella typhimurium TA98 by ames test; assay type: toxicity; conditions: salmonella enterica subsp. enterica serovar typhimurium
[17] = Mutagenicity in Escherichia coli WP2uvrA by ames test; assay type: toxicity
[18] = Mutagenicity in Escherichia coli WP2uvrA in presence of S9 fraction by ames test; assay type: toxicity, subcellular
[19] = tested on: NCI-H292; test: Antitumor activity against human NCI-H292 cells xenografted in BALB/c mouse assessed as reduction in tumor volume at 10 to 30 mg/kg, po administered for 14 days and measured on day 14; assay type: functional, organism-based; conditions: dose 10-30 mg/kg, time 14.0 day
[20] = tested on: NCI-H292; test: Antitumor activity against human NCI-H292 cells xenografted in BALB/c mouse assessed as maximal potency administered orally for 14 days and measured on day 14; assay type: functional; conditions: time 14 day
[21] = Toxicity in Wistar Han rat assessed as reduction in body weight at 10 mg/kg, po administered for 7 days and measured on day 7; assay type: organism-based; set-up: scale not given: the % may be the effect or the level left; conditions: in vivo, 168 h, time 7 day
[22] = Toxicity in Wistar Han rat assessed as decrease in activity at >= 100 mg/kg, po administered for 7 days and measured on day 7; assay type: organism-based; conditions: in vivo, 168 h, time 7 day
[23] = Toxicity in Wistar Han rat assessed as decrease in skin elasticity at >= 100 mg/kg, po administered for 7 days and measured on day 7; assay type: organism-based; conditions: in vivo, 168 h, time 7 day
[24] = Toxicity in Wistar Han rat assessed as closed eyes at >= 100 mg/kg, po administered for 7 days and measured on day 7; assay type: organism-based; conditions: in vivo, 168 h, time 7 day
[25] = Toxicity in Wistar Han rat assessed as irregular breathing at >= 100 mg/kg, po administered for 7 days and measured on day 7; assay type: organism-based; conditions: in vivo, 168 h, time 7 day
[26] = Toxicity in Wistar Han rat assessed as abnormal mucoid fecal consistency at >= 100 mg/kg, po administered for 7 days and measured on day 7; assay type: organism-based; conditions: in vivo, 168 h, time 7 day
[27] = Toxicity in Wistar Han rat assessed as abnormal soft fecal consistency at >= 100 mg/kg, po administered for 7 days and measured on day 7; assay type: organism-based; conditions: in vivo, 168 h, time 7 day
[28] = Toxicity in Wistar Han rat assessed as abnormal watery fecal consistency at >= 100 mg/kg, po administered for 7 days and measured on day 7; assay type: organism-based; conditions: in vivo, 168 h, time 7 day
[29] = Toxicity in Wistar Han rat assessed as tolerability at 10 mg/kg, po administered for 7 days and measured on day 7; assay type: organism-based; conditions: in vivo, 168 h, time 7 day

Chain of Cytochrome P450 2D6 (P10635 whole entry): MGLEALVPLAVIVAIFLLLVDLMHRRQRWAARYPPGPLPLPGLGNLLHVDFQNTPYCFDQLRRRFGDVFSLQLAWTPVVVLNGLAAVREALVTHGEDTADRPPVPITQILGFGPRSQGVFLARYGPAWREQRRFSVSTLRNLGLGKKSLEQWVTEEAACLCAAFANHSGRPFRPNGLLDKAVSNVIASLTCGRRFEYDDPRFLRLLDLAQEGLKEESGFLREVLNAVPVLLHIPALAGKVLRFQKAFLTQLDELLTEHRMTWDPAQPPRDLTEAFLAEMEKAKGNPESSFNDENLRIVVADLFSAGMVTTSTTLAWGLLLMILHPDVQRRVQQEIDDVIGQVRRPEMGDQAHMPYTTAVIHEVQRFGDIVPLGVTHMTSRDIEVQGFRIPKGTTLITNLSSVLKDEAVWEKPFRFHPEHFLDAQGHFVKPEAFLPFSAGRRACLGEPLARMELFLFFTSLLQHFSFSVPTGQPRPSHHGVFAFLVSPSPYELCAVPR
Chain of Cytochrome P450 3A4 (P08684 whole entry): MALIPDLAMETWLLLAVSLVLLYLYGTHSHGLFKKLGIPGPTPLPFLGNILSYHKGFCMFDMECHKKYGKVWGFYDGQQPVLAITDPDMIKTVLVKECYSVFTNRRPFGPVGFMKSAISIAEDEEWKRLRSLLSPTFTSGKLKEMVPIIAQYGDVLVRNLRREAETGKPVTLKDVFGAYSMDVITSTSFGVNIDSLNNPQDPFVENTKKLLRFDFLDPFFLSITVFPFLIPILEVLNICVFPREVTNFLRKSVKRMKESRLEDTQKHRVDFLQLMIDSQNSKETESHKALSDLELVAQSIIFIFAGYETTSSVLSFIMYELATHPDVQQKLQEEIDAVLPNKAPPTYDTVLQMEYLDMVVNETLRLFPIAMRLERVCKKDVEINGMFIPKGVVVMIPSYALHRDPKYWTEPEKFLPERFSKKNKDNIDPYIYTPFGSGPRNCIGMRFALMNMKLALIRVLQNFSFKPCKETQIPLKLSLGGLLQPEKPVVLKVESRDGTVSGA
Chain of Cytochrome P450 2C19 (P33261 whole entry): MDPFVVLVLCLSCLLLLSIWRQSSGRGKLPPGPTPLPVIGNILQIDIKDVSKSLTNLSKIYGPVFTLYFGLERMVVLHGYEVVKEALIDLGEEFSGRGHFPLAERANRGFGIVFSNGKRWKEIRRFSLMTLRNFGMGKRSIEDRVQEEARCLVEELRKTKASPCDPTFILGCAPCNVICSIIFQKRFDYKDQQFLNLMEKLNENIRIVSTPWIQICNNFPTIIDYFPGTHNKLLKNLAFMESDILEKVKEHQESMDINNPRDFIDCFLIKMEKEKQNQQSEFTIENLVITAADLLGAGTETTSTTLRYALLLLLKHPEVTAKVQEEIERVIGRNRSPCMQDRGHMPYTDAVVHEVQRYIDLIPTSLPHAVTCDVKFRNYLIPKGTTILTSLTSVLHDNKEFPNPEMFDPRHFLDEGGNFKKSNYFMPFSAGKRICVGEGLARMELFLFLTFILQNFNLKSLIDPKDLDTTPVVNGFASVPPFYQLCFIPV

Cc1cccc2c1c(=O)n(C[C@H]1CC[C@H](C(=O)O)CC1)c(=O)n2Cc1cccc(C(F)(F)F)c1C#N
IC50 [1]: 0.004 µM
IC50 [2]: 0.02 µM
Vd [3]: 0.97 L/kg
half-life [4]: 3.89 h
bioavailability [5]: 133%
clearance [6]: 1.44 mL/min/kg
half-life [7]: 10.9 h
bioavailability [8]: 37.1%
clearance [9]: 3.15 mL/min/kg
Vd [10]: 2.12 L/kg
IC50 [11]: 36 µM
IC50 [12]: > 100 µM
IC50 [13]: > 100 µM
Activity [14]: Non-Toxic
Activity [15]: Non-Toxic
Activity [16]: Non-Toxic
Activity [17]: Non-Toxic
Activity [18]: Non-Toxic
Activity [19]: Active
ECmax [20]: 10 mg/kg
Activity [21]: 8%
Activity [22]: Toxic
Activity [23]: Toxic
Activity [24]: Toxic
Activity [25]: Toxic
Activity [26]: Toxic
Activity [27]: Toxic
Activity [28]: Toxic
Activity [29]: Non-Toxic
